Key:
GP2D (KRAS G12D) cells = test: 2D Cell Viability Assay (CellTiter-Glo); type: cell-based; settings: 4 days, CellTiter-Glo luminescence
Experimental: Example B. 2D Cell Viability Assay
Compounds were tested in a 384-well format for their ability to inhibit the viability of GP2D (KRAS G12D) cells in 2D assays. Compounds were serially diluted (1:3) in DMSO. The LabCyte ECHO Acoustic dispenser system was used to pre-spot assay plates with 200 nL of test molecule per well. 1000 cells/well (40 μL volume per well) in RPMI medium with 10% FBS, and Penicillin-Streptomycin-Glutamine were plated in pre-spotted 384-well plates (Greiner, Catalog #781076) on the BioTEK EL406 liquid dispenser with a 5 μL dispensing cassette (BioTek 7170011). The plates were incubated at 37° C., 5% CO2 for 4 days before addition of CellTiter-Glo (CTG) reagent and measurement of luminescence signal. EC50 values were defined as the compound concentration that causes a 50% decrease in luminescence signal and were calculated using a sigmoidal dose-response model to generate curve fits.

GDP-loaded KRAS G12D = GDP-loaded KRAS G12D (Homo sapiens, UniProt P01116, G12D); test: KRAS G12D (GDP) Biochemical Assay (TR-FRET probe displacement); type: binding; settings: 0.5 nM enzyme, 2 hours at room temperature
GDP-loaded KRAS G12D, sequence (P01116 1-188 isoform P01116-2 G12D): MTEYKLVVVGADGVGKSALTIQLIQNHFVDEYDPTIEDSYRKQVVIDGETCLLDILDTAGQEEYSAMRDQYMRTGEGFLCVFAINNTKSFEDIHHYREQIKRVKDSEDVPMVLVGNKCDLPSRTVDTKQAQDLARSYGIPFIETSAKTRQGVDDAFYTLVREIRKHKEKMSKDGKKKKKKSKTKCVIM
Experimental: Example A. KRAS G12D (GDP) Biochemical Assay
Compounds were tested for binding to GDP-loaded KRAS G12D in a 384-well assay format using a TR-FRET probe displacement assay in buffer consisting of 50 mM Hepes (pH 7.4), 150 mM NaCl, 5 mM MgCl2 and 0.005% Tween-20. […] Compounds were serially diluted (1:3) in DMSO. The LabCyte ECHO Acoustic dispenser system was used to pre-spot the assay plates (384-well Non-Binding Surface plates, Corning, Catalog #3824) with 50 nL of compound. The compounds were pre-incubated with 5 μL of 2× final enzyme concentration for 30 minutes before adding 5 μL of 2× final concentration of Eu-streptavidin and TR-FRET probe (10 μL final reaction volume). The plates were incubated at room temperature for 2 hours before measuring TR-FRET ratio on the Envision plate reader. IC50 values were defined as the compound concentration that causes a 50% decrease in TR-FRET ratio and were calculated using a sigmoidal dose-response model to generate curve fits.

| SMILES | EC50 (GP2D (KRAS G12D) cells; GP2d, 96 h) [nM] | IC50 (GDP-loaded KRAS G12D) [nM] | EC50 (GP2D (KRAS G12D) cells) [nM] |
| --- | --- | --- | --- |
| C#Cc1c(F)ccc2cc(N)nc(-c3c(F)c4c5c(nc(OC[C@@]67CCCN6C[C@H](F)C7)nc5c3F)N3C[C@H]5CC[C@H](N5)[C@@H]3[C@@H](C)C4)c12 (atropisomer, axis not shown; (aS)) [Example 45, 1-((1S,4R,11S,14S,14aS)-10,12-difluoro-8-(((2R,7aS)-2-fluorotetrahydro-1H-pyrrolizin-7a(5H)-yl)methoxy)-14-methyl-1,2,3,4,5,13,14,14a-octahydro-1,4-epiminoazepino[1′,2′:1,7]azepino[2,3,4-de]quinazolin-11-yl)-8-ethynyl-7-fluoroisoquinolin-3-amine] | 2.2 | 0.04 | – |
| C[C@H]1Cc2nc(-c3cccc4sc(N)c(C#N)c34)c(F)c3nc(OC[C@@]45CCCN4C[C@H](F)C5)nc(c23)N2C[C@H]3CC[C@H](N3)[C@H]12 [Example 13, 2-amino-4-((5S,5aS,6S,9R)-1-fluoro-12-(((2R,7aS)-2-fluorotetrahydro-1H-pyrrolizin-7a(5H)-yl)methoxy)-5-methyl-4,5,5a,6,7,8,9,10-octahydro-3,10a,11,13,14-pentaaza-6,9-methanonaphtho[1,8-ab]heptalen-2-yl)benzo[b]thiophene-3-carbonitrile] | 2 | 0.45 | – |
| Nc1cc(Cl)c(C(F)F)c(-c2nc3c4c(nc(OC[C@@]56CCCN5C[C@H](F)C6)nc4c2F)N2C[C@H]4CC[C@H](N4)[C@H]2CCC3)n1 [Example 24, 4-chloro-5-(difluoromethyl)-6-((6aR,7S,10R)-1-fluoro-13-(((2R,7aS)-2-fluorotetrahydro-1H-pyrrolizin-7a(5H)-yl)methoxy)-5,6,6a,7,8,9,10,11-octahydro-4H-3,11a,12,14,15-pentaaza-7,10-methanocyclohepta[4,5]cycloocta[1,2,3-de]naphthalen-2-yl)pyridin-2-amine] | > 100 | 11 | – |
| Cc1cc(N)nc(-c2c(Cl)c3c4c(nc(OC[C@@]56CCCN5C[C@H](F)C6)nc4c2F)N2C[C@H]4CC[C@H](N4)[C@H]2CC3)c1C(F)(F)F (single isomer, unassigned) [Example 6] | – | 0.05 | 1.2 |
| C#Cc1c(F)ccc2cc(N)nc(-c3nc4c5c(nc(OC[C@@]67CCCN6C[C@H](F)C7)nc5c3F)N3C[C@H]5CC[C@H](N5)[C@H]3CCC4)c12 [Example 26, 8-ethynyl-7-fluoro-1-((6aR,7S,10R)-1-fluoro-13-(((2R,7aS)-2-fluorotetrahydro-1H-pyrrolizin-7a(5H)-yl)methoxy)-5,6,6a,7,8,9,10,11-octahydro-4H-3,11a,12,14,15-pentaaza-7,10-methanocyclohepta[4,5]cycloocta[1,2,3-de]naphthalen-2-yl)isoquinolin-3-amine] | 4.1 | 0.4 | – |
| C#Cc1c(F)ccc2cc(N)nc(-c3c(Cl)c4c5c(nc(OC[C@@]67CCCN6C[C@H](F)C7)nc5c3F)N3C[C@H]5CC[C@H](N5)[C@H]3CC4)c12 [Example 23, 1-((1S,4R,14aR)-12-chloro-10-fluoro-8-(((2R,7aS)-2-fluorotetrahydro-1H-pyrrolizin-7a(5H)-yl)methoxy)-1,2,3,4,5,13,14,14a-octahydro-1,4-epiminoazepino[1′,2′:1,7]azepino[2,3,4-de]quinazolin-11-yl)-8-ethynyl-7-fluoroisoquinolin-3-amine] | 6.1 | 0.16 | – |
| Cc1cc(N)nc(-c2c(Br)c3c4c(nc(OC[C@@]56CCCN5C[C@H](F)C6)nc4c2F)N2C[C@H]4CC[C@H](N4)[C@H]2CC3)c1C(F)(F)F [Example 14, 6-((1S,4R,14aR)-12-bromo-10-fluoro-8-(((2R,7aS)-2-fluorotetrahydro-1H-pyrrolizin-7a(5H)-yl)methoxy)-1,2,3,4,5,13,14,14a-octahydro-1,4-epiminoazepino[1′,2′:1,7]azepino[2,3,4-de]quinazolin-11-yl)-4-methyl-5-(trifluoromethyl)pyridin-2-amine] | 2.5 | 0.24 | – |
| C[C@H]1Cc2c(F)c(-c3ncc(F)c4sc(N)c(C#N)c34)c(F)c3nc(OC[C@@]45CCCN4C[C@H](F)C5)nc(c23)N2C[C@H]3CC[C@H](N3)[C@H]12 (single isomer, unassigned) [Example 50] | 2.6 | 0.12 | – |
| C#Cc1c(F)ccc2cc(N)nc(-c3c(F)c4c5c(nc(OC[C@@]67CCCN6C[C@H](F)C7)nc5c3F)N3C[C@H]5CC[C@H](N5)[C@H]3CC4)c12 (atropisomer, axis not shown; (aR)) [Example 62, 1-((1S,4R,11S,14aR)-10,12-difluoro-8-(((2R,7aS)-2-fluorotetrahydro-1H-pyrrolizin-7a(5H)-yl)methoxy)-1,2,3,4,5,13,14,14a-octahydro-1,4-epiminoazepino[1′,2′:1,7]azepino[2,3,4-de]quinazolin-11-yl)-8-ethynyl-7-fluoroisoquinolin-3-amine] | 2.5 | 0.03 | – |
| Cc1cc(N)nc(-c2c(Cl)c3c4c(nc(OC[C@@]56CCCN5C[C@H](F)C6)nc4c2F)N2C[C@H]4CC[C@H](N4)[C@H]2CC3)c1C(F)(F)F (single isomer, unassigned) [Example 5] | – | 1.1 | 14 |
| Cc1cc(N)nc(-c2c(Cl)c3c4c(nc(OC[C@@]56CCCN5C[C@H](F)C6)nc4c2F)N2C[C@H]4CC[C@H](N4)[C@H]2CCC3)c1C(F)(F)F (single isomer, unassigned) [Example 2] | 65 | 8.8 | – |
| Cc1cc(N)nc(-c2c(F)c3c4c(nc(OC[C@@]56CCCN5C[C@H](F)C6)nc4c2F)N2C[C@H]4CC[C@H](N4)[C@H]2CC3)c1C(F)(F)F [Example 19, 6-((1S,4R,14aR)-10,12-difluoro-8-(((2R,7aS)-2-fluorotetrahydro-1H-pyrrolizin-7a(5H)-yl)methoxy)-1,2,3,4,5,13,14,14a-octahydro-1,4-epiminoazepino[1′,2′:1,7]azepino[2,3,4-de]quinazolin-11-yl)-4-methyl-5-(trifluoromethyl)pyridin-2-amine] | 3.3 | 0.18 | – |
| Cc1cc(N)nc(-c2c(F)c3c4c(nc(OC[C@@]56CCCN5C[C@H](F)C6)nc4c2F)N2C[C@H]4CC[C@H](N4)[C@H]2CC3)c1C(F)(F)F (single isomer, unassigned) [Example 22] | – | 0.08 | 1.6 |
| Cc1cc(N)nc(-c2c(Cl)c3c4c(nc(OC[C@@]56CCCN5C[C@H](F)C6)nc4c2F)N2C[C@H]4CC[C@H](N4)[C@H]2CCC3)c1C(F)(F)F (single isomer, unassigned) [Example 3] | – | 87 | > 100 |
| Cc1cc(N)nc(-c2c(C)c3c4c(nc(OC[C@@]56CCCN5C[C@H](F)C6)nc4c2F)N2C[C@H]4CC[C@H](N4)[C@H]2CC3)c1C(F)(F)F [Example 10, 6-((1S,4R,14aR)-10-fluoro-8-(((2R,7aS)-2-fluorotetrahydro-1H-pyrrolizin-7a(5H)-yl)methoxy)-12-methyl-1,2,3,4,5,13,14,14a-octahydro-1,4-epiminoazepino[1′,2′:1,7]azepino[2,3,4-de]quinazolin-11-yl)-4-methyl-5-(trifluoromethyl)pyridin-2-amine] | 10 | 0.29 | – |
| Cc1cc(N)nc(-c2nc3c4c(nc(OC[C@@]56CCCN5C[C@H](F)C6)nc4c2F)N2C[C@H]4CC[C@H](N4)[C@H]2C[C@H](C)C3)c1C(F)(F)F [Example 18, 6-((5S,6aR,7S,10R)-1-fluoro-13-(((2R,7aS)-2-fluorotetrahydro-1H-pyrrolizin-7a(5H)-yl)methoxy)-5-methyl-5,6,6a,7,8,9,10,11-octahydro-4H-3,11a,12,14,15-pentaaza-7,10-methanocyclohepta[4,5]cycloocta[1,2,3-de]naphthalen-2-yl)-4-methyl-5-(trifluoromethyl)pyridin-2-amine] | > 100 | 83 | – |
| C[C@H]1Cc2c(Cl)c(-c3cccc4sc(N)c(C#N)c34)c(F)c3nc(OC[C@@]45CCCN4C[C@H](F)C5)nc(c23)N2C[C@H]3CC[C@H](N3)[C@H]12 (atropisomer, axis not shown; (aS)) [Example 57, 2-amino-4-((1S,4R,11R,14S,14aS)-12-chloro-10-fluoro-8-(((2R,7aS)-2-fluorotetrahydro-1H-pyrrolizin-7a(5H)-yl)methoxy)-14-methyl-1,2,3,4,5,13,14,14a-octahydro-1,4-epiminoazepino[1′,2′:1,7]azepino[2,3,4-de]quinazolin-11-yl)benzo[b]thiophene-3-carbonitrile] | 0.94 | 0.06 | – |

— patent US20250101042A1, “KRAS G12D MODULATING COMPOUNDS” (Gilead Sciences, Inc., priority 2023, published 2025)
